| SMILES | melting point |
| --- | --- |
| Cn1c(=O)[nH]c2cccc(I)c2c1=O | > 300 °C |
| CCOC(=O)C1(C)Oc2c(OC)cccc2C1=O (configuration not stated) | 81 to 82 °C |
| O=[N+]([O-])c1ccc2ncnc(Nc3cccc(Br)c3)c2c1 | 267 to 270 °C |
| COc1cc(-n2c(C#N)c(C#N)n(C(F)F)c2=O)c(F)cc1Br | 150 °C |
| CCOC(=O)c1ccc(CCN(C)CCCC(C#N)(c2ccc(OC)c(OC)c2)C(C)C)cc1 (configuration not stated) | 111 to 112 °C |
| Cc1cc(C=O)ccc1NC(=O)OC(C)(C)C | 109 to 111 °C |
| Cc1nc(C#N)ccc1N | 192 to 196 °C |
| N#Cc1csc2c1CCN(C(=O)C(F)(F)F)CC2c1ccccc1 (configuration not stated) | 107 °C |
| COc1c([N+](=O)[O-])cc(Br)c2c1C(=CC#N)CC2 | 156 to 158 °C |
| Oc1ccc(CC2NCCC3=C2CCCC3)cc1 (single isomer, unassigned; (+)) | 154 to 156 °C |
| CC(=O)N[C@H]1CCC(=O)N2CCC[C@@H](C(=O)O)N2C1=O | > 250 °C |
| CC(C)CCCC(C)C1CCC2C3CC=C4CC(N)CCC4(C)C3CCC12C (configuration not stated) | 92 to 94 °C |
| CCCOc1ccnc2[nH]cc(-c3ccnc(N)n3)c12 | > 210 °C |
| CCCc1nc2c(N)nc3ccccc3c2n1CCCCCC(=O)N(C)OC | 134 to 135 °C |
| Cn1nc(N)c2c(=O)n3c(nc21)SCC3 | 280 to 283 °C |
| CC12C=CC(=O)CC1CCC1C2CCC2(C)C(C(=O)NC3(C#N)CCCC3)CCC12 (configuration not stated) | 262 to 269 °C |
| CCOC(=O)C1=C(C)NC(O)(C(Cl)(Cl)Cl)C(C(=O)OCC)C1c1cccc([N+](=O)[O-])c1 (configuration not stated) | 125 to 126 °C |
| COc1cc(C)cc2c(Br)ccc(OC(C)C)c12 | 78 °C |
| COC(=O)C1=C(C)NC(C)=C(C(=O)OCCN(C)C)C1c1cccc2nonc12 (configuration not stated) | 99 °C |
| NCc1cccc(-c2ccc(Br)cc2)n1 | 71 to 75 °C |
| O=[N+]([O-])c1cnc(Sc2nccnc2Cl)s1 | 139 to 141 °C |
| CS(=O)(=O)N(c1ccc([N+](=O)[O-])cn1)S(C)(=O)=O | 175 to 177 °C |

| SMILES | melting point |
| --- | --- |
| CN1CCC(O)(c2cc(F)cc(Cl)c2)C1 (configuration not stated) | 117 to 118 °C |
| CCCCCCCCCCCCCCCCSCC(CN)n1nnc(C)n1 (configuration not stated) | 82 to 83 °C |
| O=C(Nc1c[nH]nc1C(=O)NC1CCCCC1)c1ccccn1 | 262 to 263 °C |
| CCCCc1c(C(=O)O)ccc2ccc(OC)cc12 | 123 to 125 °C |
| CSC(=S)NN=Cc1nc(-c2ccccc2)[nH]c1C | 180 to 185 °C |
| CC1=NC(=NOC(=O)NC2CCC2)SC1(C)C | 94 to 96 °C |
| C=CCOc1ccc(CCC(=O)O)cc1 | 88 to 89 °C |
| COC1C(O)C(CO)OC1n1cc(C)c(=O)[nH]c1=O (configuration not stated) | 192 to 193 °C |
| Cc1c(-c2ncncc2Cl)ssc1=S | 100 °C |
| O=C(NC(=O)c1c(F)cccc1Cl)Nc1ccc(Br)cn1 | 207 to 213 °C |
| CCc1cc2c(s1)-n1c(C)nnc1C(CC(=O)Nc1ccccc1)N=C2c1ccc(Cl)cc1 (configuration not stated) | 238 to 239 °C |
| COc1cc(OC)c(C)c(C(=O)OCC(Cl)(Cl)Cl)c1C | 129 °C |
| CCc1cc2c(cc1O)CCC1C2CCC2(C)C(=CCOC)CCC12 (configuration not stated) | 133 to 134 °C |
| Cc1nnc(-c2ccccc2OCC2CO2)o1 (configuration not stated) | 38 to 40 °C |
| CC(Oc1ccc(Oc2ccc(C(F)(F)F)cc2)cc1)C(N)=O (configuration not stated) | 147 to 149 °C |
| CCOc1cc(-c2cc(C(F)(F)F)n3ncc(C(=O)Nc4cc(S(N)(=O)=O)sc4Cl)c3n2)ccc1C(F)(F)F | 281 °C |
| Cc1nn(-c2cc(C(=O)NS(=O)(=O)N(C)C(C)C)c(Cl)cc2F)c(=O)n1C(F)F | 118 to 122 °C |
| CC(=O)c1ccc2c(c1)C(c1ccccc1F)=NC(C)C(=O)N2C (configuration not stated) | 65 °C |
| COC(=C1C2CC3CC1CC(O)(C3)C2)c1cccc(O)c1 | 171 to 172 °C |
| CCCCc1ccc(C(=O)O)c(=O)[nH]1 | 149 °C |
| CN(C)C=NC(=O)c1cc2c(cn1)[nH]c1ccccc12 | 254 to 257 °C |
| C=CCc1c(O)nc(N)nc1O | > 250 °C |

The remaining lines, values ahead:

| melting point | SMILES |
| --- | --- |
| 94 to 95 °C | CCOC(OCC)C(N)=C(c1ccncc1N)c1ccccc1Cl |
| 220 to 223 °C | O=C1c2ccccc2C(=O)N1CC(=O)N1c2ccccc2N(Cc2cccnc2)C(=O)[C@H]2CCC[C@H]21 (relative stereo) |
| 101 to 109 °C | CC(=O)Nc1cc(Oc2c(Cl)cc(-n3ncc(=O)[nH]c3=O)cc2Cl)ccc1O |
| 144 to 146 °C | O=C(NCCN1CCN(C(c2ccc(F)cc2)c2ccccn2)CC1)C1CSC(c2cccnc2)N1 (configuration not stated) |
| 73 °C | COC(=O)CCCCc1cc2nc(Cl)ccc2n1S(=O)(=O)c1ccccc1 |
| 72 to 73 °C | Cc1ccsc1-c1nc(COc2ccc(CCCn3ccnc3)cc2)co1 |
| 188 to 190 °C | Cc1oc(-c2ccccc2)nc1CCOc1ccc(C[C@H](NC(=O)C=Cc2ccc(F)cc2)C(=O)O)cc1 |
| 192 °C | c1ccc(-c2ccn3cnnc3n2)cc1 |
| 130 to 132 °C | O=C1[C@H]2CCC[C@H]2N(C(=O)CBr)c2ccccc2N1CCCc1ccccc1 (relative stereo) |
| 90 °C | COc1ccccc1-c1cccc2c1OC(CN)CN2C (configuration not stated) |
| 138 to 140 °C | CCN(CC)CCN1C(=O)Nc2cnccc2C1c1ccccc1 (configuration not stated) |
| 128 to 131 °C | COC1=C(OC)C(=O)C2=C(CC(CCCCOc3ccc(C(=O)N4CCOCC4)cc3)C2)C1=O |
| 161 °C | O=C(C=Cc1ccc(Oc2ccccc2)cc1)c1ccc(C2CCCCC2)cc1 |
| 302 to 304 °C | CC1=C2C(=O)N(O)C(=O)c3cccc(c32)C(=NO)C1O (configuration not stated) |
| 175 to 176 °C | O=c1ccn(-c2ccc(OC(F)F)cc2)nc1-c1ccnn1-c1ccccc1 |
| 214 to 216 °C | Cc1cccnc1COc1nn2c(-c3ccccc3)nnc2cc1C12CCC(CC1)C2 |
| 108 to 109 °C | CC(Oc1ccc(-c2ccc(F)c(C#N)c2)cc1)C(O)CCc1cccnc1 (configuration not stated) |
| 228 °C | CNC1(c2ccccc2Cl)C(=O)N(S(=O)(=O)c2ccc(NC(=O)c3cccnc3)cc2)c2ccc(Cl)cc21 (configuration not stated) |
| 232 °C | O=C(Nc1n[nH]c2c(F)cccc12)c1ccccc1 |
| 206 °C | COc1ccc(-c2cc(C(F)F)n3ncc(-c4ccncc4)c3n2)cc1 |
| 191 to 194 °C | Cc1ccc(-c2sc(N)c(C(=O)c3ccc(Cl)cc3)c2CN(C2CCCCC2)C2CCCCC2)cc1 |
| 236 to 238 °C | COc1ccccc1C(=O)NCc1cccc2c1CN(C1CCC(=O)NC1=O)C2=O (configuration not stated) |
| 185 to 192 °C | COCCNc1ccc2c(c1)OC(c1ccccc1)C(c1ccc3c(c1)NC(=O)CO3)=C2 (configuration not stated) |
| 78 to 79 °C | CCOC(=O)c1cnn(Cc2ccccc2)c1-c1ccccc1 |
| 284 to 286 °C | O=C1NC(Cc2ccncc2)(Cc2ccncc2)C(=O)N1C12CC3CC(CC(C3)C1)C2 |
| 220 to 221 °C | CN1CC[C@@H](c2c(O)cc(O)c3c(=O)cc(-c4cc(O)ccc4Cl)oc23)[C@@H]1CO |
| 112 °C | O=C(OCc1ccccc1)c1cc(C(=O)OCc2ccccc2)n(CCBr)n1 |
| 201 to 203 °C | NC(=O)c1sc2ncnc(-c3cccc(NC(=O)Nc4cccc(C(F)(F)F)c4)c3)c2c1N |
